Results published in patent publication US11046699B2, “Pyrazolo-pyrimidin-amino-cycloalkyl compounds and their therapeutic uses” (RAPT THERAPEUTICS, INC., priority 2018, dated 2021).
Read-outs that look alike come from different tables or passages of the source.

Target: GCN2 (Homo sapiens, UniProt Q9P2K8)
Assay: GCN2 enzymatic endpoint assay: phosphorylation of GFP-eIF2α measured by TR-FRET (Lanthascreen)
Type: biochemical
Method in brief: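 Kinase activity is measured as phosphorylation of GFP-labelled eIF2α (80 nM) with ATP at 2 μM. Incubation runs 90 minutes at room temperature before EDTA quench and terbium-antibody detection.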

[1] = tested as described in Example 77, compound and/or hydrochloride, dihydrochloride or trifluoroacetic acid salt, read-out: IC 50 Activity
[2] = GCN2 biochemical IC50, 4 nM GCN2, 2 μM ATP, 80 nM GFP-eIF2α, 90 min RT, read-out: GCN2 activity

Chain of GCN2 (Q9P2K8 whole entry): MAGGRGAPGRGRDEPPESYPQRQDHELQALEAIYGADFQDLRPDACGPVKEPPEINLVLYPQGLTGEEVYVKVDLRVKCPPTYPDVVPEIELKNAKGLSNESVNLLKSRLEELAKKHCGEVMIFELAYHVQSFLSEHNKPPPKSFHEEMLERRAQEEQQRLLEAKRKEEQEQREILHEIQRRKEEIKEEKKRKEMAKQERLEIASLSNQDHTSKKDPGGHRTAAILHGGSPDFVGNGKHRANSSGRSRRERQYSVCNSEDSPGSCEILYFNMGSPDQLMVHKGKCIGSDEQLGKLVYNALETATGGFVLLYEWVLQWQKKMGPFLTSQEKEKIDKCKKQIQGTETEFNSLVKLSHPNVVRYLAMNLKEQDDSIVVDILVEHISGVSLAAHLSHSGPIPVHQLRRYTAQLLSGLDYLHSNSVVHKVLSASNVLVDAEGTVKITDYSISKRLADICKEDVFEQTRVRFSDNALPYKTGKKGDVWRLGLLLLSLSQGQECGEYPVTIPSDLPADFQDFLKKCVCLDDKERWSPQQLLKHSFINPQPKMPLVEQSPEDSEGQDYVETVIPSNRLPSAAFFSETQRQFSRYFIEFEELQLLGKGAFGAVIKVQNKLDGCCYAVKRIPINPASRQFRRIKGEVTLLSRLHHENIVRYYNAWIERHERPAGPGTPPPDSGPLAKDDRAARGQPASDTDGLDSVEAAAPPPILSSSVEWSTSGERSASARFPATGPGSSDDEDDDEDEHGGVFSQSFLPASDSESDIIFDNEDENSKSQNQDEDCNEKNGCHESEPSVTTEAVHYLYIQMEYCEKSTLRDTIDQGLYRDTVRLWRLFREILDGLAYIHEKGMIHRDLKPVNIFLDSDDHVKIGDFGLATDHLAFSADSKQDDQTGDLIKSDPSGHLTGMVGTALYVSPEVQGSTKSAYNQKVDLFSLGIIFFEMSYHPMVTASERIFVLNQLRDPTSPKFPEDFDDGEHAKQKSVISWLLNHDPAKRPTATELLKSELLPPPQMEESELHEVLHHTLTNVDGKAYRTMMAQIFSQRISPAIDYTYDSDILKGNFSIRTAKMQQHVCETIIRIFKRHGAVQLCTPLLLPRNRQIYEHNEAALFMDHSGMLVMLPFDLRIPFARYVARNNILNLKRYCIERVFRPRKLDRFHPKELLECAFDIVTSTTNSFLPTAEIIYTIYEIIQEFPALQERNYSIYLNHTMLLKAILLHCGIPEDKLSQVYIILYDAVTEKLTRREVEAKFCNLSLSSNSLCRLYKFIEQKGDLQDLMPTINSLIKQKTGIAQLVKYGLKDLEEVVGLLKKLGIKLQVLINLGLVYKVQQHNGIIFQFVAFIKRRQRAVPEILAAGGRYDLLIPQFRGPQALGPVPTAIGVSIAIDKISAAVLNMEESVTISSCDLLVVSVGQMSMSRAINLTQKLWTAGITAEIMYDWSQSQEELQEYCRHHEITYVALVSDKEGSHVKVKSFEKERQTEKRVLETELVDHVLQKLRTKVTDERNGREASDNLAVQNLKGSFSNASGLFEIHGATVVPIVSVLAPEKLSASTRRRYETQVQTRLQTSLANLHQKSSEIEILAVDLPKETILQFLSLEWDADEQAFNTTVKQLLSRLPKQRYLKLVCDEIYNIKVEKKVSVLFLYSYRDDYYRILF

| SMILES | IC50 [1] [nM] | IC50 [2] [nM] |
| --- | --- | --- |
| CNC(=O)[C@]1(C)CC[C@@H](Nc2ncc3c(Br)nn(-c4cc(CNCCOC)c5ncccc5c4)c3n2)C1 [(1R,3R)-3-[[3-bromo-1-[8-[(2-methoxy-ethylamino)methyl]-6-quinolyl]pyrazolo [3,4-d]pyrimidin-6-yl]amino]-N,1-dimethyl-cyclopentanecarboxamide] | 25 to 200 |  |
| O=C(N[C@@H]1CCNC[C@@H]1F)[C@@H]1CC[C@@H](Nc2ncc3c(Br)nn(-c4cc(F)c5ncccc5c4)c3n2)C1 [(1R,3R)-3-((3-bromo-1-(8-fluoroquinolin-6-yl)-1H-pyrazolo[3,4-d]pyrimidin-6-yl)amino)-N-((3S,4R)-3-fluoropiperidin-4-yl)cyclo-pentane-1-carboxamide] | < 25 |  |
| CNC(=O)[C@]1(C)CC[C@@H](Nc2ncc3c(Br)nn(-c4cc(CCN)c5ncc(C#N)cc5c4)c3n2)C1 [(1R,3R)-3-[[1-[8-(2-aminoethyl)-3-cyano-6-quinolyl]-3-bromo-pyrazolo[3,4-d]pyrimidin-6-yl]amino]-N,1-dimethyl-cyclopentane-carboxamide] | 25 to 200 |  |
| CNC(=O)[C@]1(C)CC[C@@H](Nc2ncc3c(Br)nn(-c4ccc(-c5nnc(C(C)(C)C)o5)cc4)c3n2)C1 [(1R,3R)-3-[[3-bromo-1-[4-(5-tert-butyl-1,3,4-oxadiazol-2-yl)phenyl]pyrazolo[3,4-d]pyrimidin-6-yl]amino]-N,1-dimethyl-cyclopentane-carboxamide] | 25 to 200 |  |
| N#Cc1cc(-n2nc(Br)c3cnc(N[C@@H]4CC[C@@H](C(=O)NCC5(F)CNC5)C4)nc32)cc2cccnc12 | < 25 |  |
| CNC(=O)[C@]1(C)CC[C@@H](Nc2ncc3c(Br)nn(-c4cc(C#N)c5nc(C)ccc5c4)c3n2)C1 [(1R,3R)-3-[[3-bromo-1-(8-cyano-2-methyl-6-quinolyl)pyrazolo[3,4-d]pyrimidin-6-yl]amino]-N,1-dimethyl-cyclopentane-carboxamide] | < 25 |  |
| COCCNC(=O)[C@@H]1CC[C@@H](Nc2ncc3c(Br)nn(-c4cc(Cl)c5ncccc5c4)c3n2)C1 [(1R,3R)-3-((3-bromo-1-(8-chloroquinolin-6-yl)-1H-pyrazolo[3,4-d]pyrimidin-6-yl)amino)-N-(2-methoxyethyl)cyclopentane-1-carboxamide] | 25 to 200 |  |
| CNC(=O)[C@]1(C)CC[C@@H](Nc2ncc3c(Br)nn(-c4ccc(-c5ccon5)cc4)c3n2)C1 [(1R,3R)-3-[[3-bromo-1-(4-isoxazol-3-ylphenyl)pyrazolo[3,4-d]pyrimidin-6-yl]amino]-N,1-dimethyl-cyclopentane-carboxamide] | 25 to 200 |  |
| CNC(=O)[C@]1(C)CC[C@@H](Nc2ncc3c(Br)nn(-c4ccc5nc(CNCCC#N)ccc5c4)c3n2)C1 [(1R,3R)-3-[[3-bromo-1-[2-[(2-cyanoethylamino)methyl]-6-quinolyl]pyrazolo[3,4-d]pyrimidin-6-yl]amino]-N,1-dimethyl-cyclopentane-carboxamide] | 25 to 200 |  |
| C[C@]1(C(=O)O)C[C@H](Nc2ncc3c(Br)nn(-c4ccc5ncccc5c4)c3n2)C1 | 200 to 500 |  |
| CNC(=O)[C@]1(C)CC[C@@H](Nc2ncc3c(Br)nn(-c4ccc(-c5cncn5C)cc4)c3n2)C1 [(1R,3R)-3-[[3-bromo-1-[4-(3-methylimidazol-4-yl)phenyl]pyrazolo[3,4-d]pyrimidin-6-yl]amino]-N,1-dimethyl-cyclopentane-carboxamide] | 25 to 200 |  |
| CNC(=O)[C@@]1(CC(F)(F)F)CC[C@@H](Nc2ncc3c(Br)nn(-c4ccc(-c5nnc(C)s5)cc4)c3n2)C1 | 25 to 200 |  |
| CNC(=O)[C@]1(C)CC[C@@H](Nc2ncc3c(Br)nn(-c4cc(F)c5c(c4)CCO5)c3n2)C1 [(1R,3R)-3-[[3-bromo-1-(7-fluoro-2,3-dihydro-benzofuran-5-yl)pyrazolo[3,4-d]pyrimidin-6-yl]amino]-N,1-dimethyl-cyclopentane-carboxamide] | 25 to 200 |  |
| CC1(C(=O)N2CNC(=O)C2)CC[C@@H](Nc2ncc3c(Br)nn(-c4cc(F)c5ncccc5c4)c3n2)C1 (stereo partly drawn) [1-[(3R)-3-[[3-bromo-1-(8-fluoro-6-quinolyl)pyrazolo[3,4-d]pyrimidin-6-yl]amino]-1-methyl-cyclopentanecarbonyl]imidazolidin-4-one] | < 25 |  |
| N#Cc1cc(-n2nc(Br)c3cnc(N[C@@H]4CC[C@H](C(=O)NCC5(F)CNC5)C4)nc32)cc2cccnc12 [(1S,3R)-3-((3-bromo-1-(8-cyanoquinolin-6-yl)-1H-pyrazolo[3,4-d]pyrimidin-6-yl)amino)-N-((3-fluoroazetidin-3-yl)methyl)cyclo-pentane-1-carboxamide] | 25 to 200 |  |
| CNC(=O)[C@]1(C)CC[C@@H](Nc2ncc3c(Br)nn(-c4ccc(-c5nnc(C(C)C)o5)cc4)c3n2)C1 [(1R,3R)-3-[[3-bromo-1-[4-(5-isopropyl-1,3,4-oxadiazol-2-yl)phenyl]pyrazolo[3,4-d]pyrimidin-6-yl]amino]-N,1-dimethyl-cyclopentanecarboxamide] | 25 to 200 |  |
| C[C@]1(NC(=O)[C@@H]2CC[C@@H](Nc3ncc4c(Br)nn(-c5ccc6ncccc6c5)c4n3)C2)C[C@H](O)C1 | 25 to 200 |  |
| CNC(=O)[C@]1(C)CC[C@@H](Nc2ncc3c(Br)nn(-c4ccc5ncc(C(C)(C)O)cc5c4)c3n2)C1 [Example 21, (1R,3R)-3-((3-bromo-1-(3-(2-hydroxypropan-2-yl)quinolin-6-yl)-1H-pyrazolo[3,4-d]pyrimidin-6-yl)amino)-N,1-dimethylcyclopentane-1-carboxamide] |  | 25 to 200 |
| C[C@@H]1C(=O)N(C)CCN1C(=O)[C@@H]1CC[C@@H](Nc2ncc3c(Br)nn(-c4cc(C#N)c5ncccc5c4)c3n2)C1 [6-(3-bromo-6-(((1R,3R)-3-((R)-2,4-dimethyl-3-oxopiperazine-1-carbonyl)cyclopentyl)amino)-1H-pyrazolo[3,4-d]pyrimidin-1-yl) quinoline-8-carbonitrile] | < 25 |  |
| CNC(=O)[C@]1(C)CCC(Nc2ncc3c(Br)nn(-c4cnc(-c5nnc(C)s5)c(Cl)c4)c3n2)C1 (stereo partly drawn) [(1R)-3-[[3-bromo-1-[5-chloro-6-(5-methyl-1,3,4-thiadiazol-2-yl)-3-pyridyl]pyrazolo [3,4-d]pyrimidin-6-yl]amino]-N,1-dimethyl-cyclopentanecarboxamide] | 25 to 200 |  |
| CNC(=O)C1(C)CC[C@@H](Nc2ncc3c(Br)nn(-c4ccc(-c5cccnc5)c(C#N)c4)c3n2)C1 (stereo partly drawn) [Example 44, (3R)-3-((3-bromo-1-(3-cyano-4-(pyridin-3-yl)phenyl)-1H-pyrazolo[3,4-d]pyrimidin-6-yl)amino)-N,1-dimethylcyclopentane-1-carboxamide; 2,2,2-trifluoroacetic acid] |  | 25 to 200 |
| CNC(=O)[C@]1(C)CC[C@@H](Nc2ncc3c(Br)nn(-c4cc(N)c5ncccc5c4)c3n2)C1 [(1R,3R)-3-[[1-(8-amino-6-quinolyl)-3-bromo-pyrazolo[3,4-d]pyrimidin-6-yl]amino]-N,1-dimethyl-cyclopentane-carboxamide] | 25 to 200 |  |
| CNC(=O)[C@]1(C)CC[C@@H](Nc2ncc3c(Br)nn(-c4cc(Cl)cc(CS(C)(=O)=O)c4)c3n2)C1 [(1R,3R)-3-[[3-bromo-1-[3-chloro-5-(methylsulfonylmethyl)phenyl]pyrazolo [3,4-d]pyrimidin-6-yl]amino]-N,1-dimethyl-cyclopentanecarboxamide] | 25 to 200 |  |
| Fc1cc(-n2nc(Br)c3cnc(NC4COC4)nc32)cc2cccnc12 [3-bromo-1-(8-fluoro-6-quinolyl)-N-(oxetan-3-yl)pyrazolo[3,4-d]pyrimidin-6-amine] | 25 to 200 |  |
